Assay results as given in patent US5827896A, “Pinitol and derivatives thereof for the treatment of metabolic disorders” (priority 1996, dated 1998).
“And” between values parts separate entries of the source, which are not always exact repeats. Equal values may be shown once.

Columns and labels:
[1] = test system: plasma insulin; assay: plasma insulin during oral glucose tolerance test (RIA) in non-insulin-dependent Type II diabetics (Example 3); format: in vivo, human
Experimental: (§1) Five non-insulin-dependent diabetic subjects were studied on two occasions one week apart. For three days the subjects received pinitol 4.15 mg/kg/day orally in a drink once daily for 3 days. The preparation also contained 0.85 mg/kg/day D-chiro-inositol in other forms. The total inositol content by weight (including pinitol) was 22.5%. On the fourth day they took no morning dose of oral hypoglycemic agents and reported to the Clinical Research Center. Baseline blood samples were taken at -90 and -60 minutes, and at -60 minutes a dose of pinitol identical to that taken during the previous 3 days was given orally. The material contained less than 5 calories. At zero time 75 g glucose was given to begin a glucose tolerance test and blood samples were taken half-hourly for 3 hours. In random order the subjects received either myo-inositol (5 mg/kg/day) or soy pinitol (total inositol content 5 mg/kg/day). […] Plasma inositol levels were measured by gas chromatography/mass spectrometry and insulin levels were measured by RIA.

[2] = clinical; settings: in vivo
Experimental: as §1

[3] = acid hydrolysis of pinitol to D-chiro-inositol in 6N HCl; format: physicochemical; settings: 24 hr at 110° in 6N HCl
Experimental: The highly standardized components of Purina Rodent Chow 5001 were analyzed by gas chromatography-mass spectrometry after hydrolysis in 6N HCI at 110° for 24 hr. to convert the pinitol to D-chiro-inositol and the results are presented in Table I below:
In contrast to other ether linkages it is not necessary to use concentrated hydrogen iodide to convert pinitol to D-chiro-inositol as detailed in U.S. Pat. No. 5,091,596.

[4] = test system: plasma glucose; assay: plasma glucose during oral glucose tolerance test in non-insulin-dependent Type II diabetics (Example 3); format: in vivo, human
From the text: The material contained less than 5 calories.

[5] = test system: plasma free fatty acids; assay: fasting plasma free fatty acids in NIDDM patients, placebo-controlled crossover (Example 5); format: in vivo, human; settings: 5 days
Experimental: (§2) 10 non-insulin-dependent diabetes patients maintained a pinitol and D-chiro-inositol-deficient diet (no legumes, or citrus fruits) throughout the study. […] The following table summarizes the characteristics of the patients.
(§3) Each subject received both placebo and soy-derived pinitol in separate tests. After an initial 5-day washout period the subjects received 5 days of treatment with either pinitol 5 mg/kg BID (total dose 10 mg/kg/day) or placebo without inositols. The material was given orally in 60 ml. calorie-free KOOL-AID drink.
(§4) Twelve hours after the last dose, two fasting plasma samples were drawn from each subject 15 minutes apart. Plasma free fatty acid levels were measured. A dose of pinitol was then given and a 3-hour glucose tolerance test was performed.
(§5) After a second 5-day washout period and another 5 days of pinitol or placebo feeding the testing was repeated. The order of treatment (pinitol or lacebo) was randomized and study investigatyors and those conducting the analyses were blinded to the order of treatment given.

[6] = fasting plasma pinitol and chiro-inositol levels in NIDDM patients (Example 5); format: in vivo, human
Experimental: as §2, §3, §4, §5

[7] = test system: plasma glucose; settings: stated as basis for use as control; cited from earlier work
[8] = test system: plasma insulin; settings: stated as basis for use as control; cited from earlier work
[9] = before glucose, during pinitol treatment
[10] = compared to the pinitol-deficient diet

plasma D-chiro-inositol reached ([2]; human, 240 min)	Cmax at 3 h ([2]; human, po, 4.15 mg/kg/day)	time of peak plasma pinitol after oral administration ([2]; po)	plasma chiro-inositol on pinitol feeding [6, 10]	plasma pinitol on pinitol feeding [6, 10]	concentration at 12 h ([6]; human, plasma, po, pinitol 5 mg/kg BID orally, 5 days, twelve hours after last dose, Mean ± SD, placebo 0.014 ± 0.012, P <0.0001)	Structure (SMILES)	Insulin Area, Pinitol ([1]; 75 g glucose tolerance test, 3 hours, soy pinitol (total inositol 5 mg/kg/day orally), one value per subject (1-5))	baseline insulin levels [1, 9]	reduction of insulin area during the glucose tolerance test ([1]; pinitol vs myo-inositol, five subjects, p=0.046)	Insulin Area, Percent Change (Reduction) ([1]; pinitol vs myo-inositol, one value per subject (1-5))	conversion to D-chiro-inositol on acid hydrolysis [3]	baseline glucose levels [4, 9]	reduction in plasma glucose area (mg/dl×minutes) during the glucose tolerance test ([4]; pinitol vs myo-inositol, five subjects, p=0.11)	Fasting plasma free fatty acids ([5]; pinitol 5 mg/kg BID (10 mg/kg/day) orally, twelve hours after last dose, Mean ± SD, placebo 648 ± 244, P 0.05)	reduction in mean fasting plasma free fatty acids ([5]; pinitol 5 mg/kg BID, vs placebo, p=0.05 by paired t-test)	Insulin Area, myo-Inositol ([1]; 75 g glucose tolerance test, 3 hours, myo-inositol 5 mg/kg/day (control), one value per subject (1-5))	effect on plasma glucose [7]	effect on plasma insulin [8]
1.7 µM	5400 nM	three	increased substantially	increased substantially	488 ± 290 nM	CO[C@H]1[C@H](O)[C@@H](O)[C@@H](O)[C@H](O)[C@@H]1O [Pinitol, 3-O-methyl-D-chiro-inositol]	8844 μU/ml × minutes and 4032 μU/ml × minutes and 1518 μU/ml × minutes and 1566 μU/ml × minutes and 1197 μU/ml × minutes	unchanged	25.2±8.9%	51.1% and 12.3% and 32.6% and 30.6% and 0.5%	quantitatively converted to D-chiro-inositol	unchanged	18.8±9.1%	569 ± 276 µM	12.2%	–	–	–
–	–	–	–	–	–	O[C@H]1[C@H](O)[C@@H](O)[C@H](O)[C@@H](O)[C@H]1O [myo-Inositol, myo-inositol, reference compound]	–	–	–	–	–	–	–	–	–	18066 μU/ml × minutes and 4599 μU/ml × minutes and 2253 μU/ml × minutes and 2256 μU/ml × minutes and 1191 μU/ml × minutes	no definite effect	no definite effect
